{"source": "patent US20170189372A1", "about": "“USE OF SUBSTITUTED CHROMAN COMPOUNDS” (INSTYTUT BIOLOGII MEDYCZNEJ, priority 2014, published 2017)", "key": {"[1]": {"system": "reporter cell line for interleukin-10 (EL-4 cells)", "test": "FCC test, expanded version, IL-10 reporter cell line", "assay_type": "cell-based, mouse", "conditions": "IL-10 reporter line; PMA and ionomycin; 1.56 to 50 μg/ml, 50 μg/ml assumed to be 1", "experimental": "(§1) Development of reporter cell lines was described previously (Ulleras, E., D. Trzaska, et al. (2005); “Development of the “Cell Chip”: a new in vitro alternative technique for immunotoxicity testing”, Toxicology 206(2): 245-56). Briefly, EL-4 cells were stably transfected with transgene consisting of promoter regions from mouse β-actin, interleukin-2 (IL-2), interleukin-4 (IL-4), interferon-γ (IFN-γ), and interleukin-10 (IL-10) and ORF for EGFP. Reporter cells were cultured at density 5×10^5-1×10^6 cells/ml in a humidified atmosphere with 5% CO2 at 37° C. in RPMI 1640 with Glutamax supplemented with 20% FCS and 0.5 μg/ml G418.\n(§2) Compounds after primary screening were considered to be hits when FCC parameter calculated after primary screening was ≦−5000. After secondary screening area under the curve (A) of FCC parameter versus relative concentration was calculated (maximum concentration used, i.e. 50 μg/ml, was assumed to be 1). […]\n(§3) Flavonoids selected after preliminary screening were undergoing FCC testing using 5 reporter cell lines: for β-actin, interleukin-2 (IL-2), interleukin-4 (IL-4), interferon-γ (IFN-γ) and interleukin-10 (IL-10). The tested concentrations were in the range from 1.56 to 50 μg/ml.\n(§4) Using flow cytometry mean fluorescence intensity (columns, left Y axis) and cell viability (dots, the right Y-axis) was determined for all the experimental points and normalized relative to the control—cells incubated with medium with PMA and ionomycin. The data is the mean of the three experiments ±SEM. The statistical significance of differences between means were determined: * p<0.05, ** p<0.01, *** p<0.001 versus control. Values above the graph represent the area under the curve showing the relationship of the FCC parameter and the relative compound concentration."}, "[2]": {"system": "IL-2 production by Jurkat cells", "test": "ELISA for IL-2 in Jurkat cells", "assay_type": "cell-based", "conditions": "for inhibition at 10 µg/mL / inhibition at 50 µg/mL: Homo sapiens, Jurkat cells, PMA and ionomycin, 24 hours; for inhibition at 10 µg/mL: 10 μg/ml; for inhibition at 50 µg/mL: 50 μg/ml", "experimental": "Jurkat cells were seeded in 48-well plates at a concentration of 1 million/ml. Cells activated with PMA (50 ng/ml) and ionomycin (1 uM) or resting were incubated with 50 selected flavonoids in a concentration of 10 μg/ml and 50 μg/ml for 24 hours in a humidified atmosphere with 5% CO 2 at 37° C. As a control, the respective cells in the medium or in a medium with PMA and ionomycin were employed. After incubation, cells were centrifuged (8 minutes, 1300 rpm), and the cell-free supernatants were stored at −20° C. until measurements. IL-2 was assessed using a commercially available ELISA kits according to the manufacturer's instructions. Each experiment was repeated 3 times.\nFCC assay and ELISA assay were repeated three times. Relative data were presented as the means±SEM. […] Statistical significance of differences observed in both assays was tested with ANOVA followed by post hoc Dunnett test using GraphPad software (La Jolla, Calif., USA). In statistical analysis non-relative data were used"}, "[3]": {"system": "reporter cell line for β-actin (EL-4 cells)", "test": "FCC test, expanded version, β-actin reporter cell line", "assay_type": "cell-based, mouse", "conditions": "PMA and ionomycin, 1.56 to 50 μg/ml, 50 μg/ml assumed to be 1", "experimental": "as §1, §2, §3, §4"}, "[4]": {"system": "reporter cell line for interferon-γ (EL-4 cells)", "test": "FCC test, expanded version, IFN-γ reporter cell line", "assay_type": "cell-based, mouse", "conditions": "PMA and ionomycin, 1.56 to 50 μg/ml, 50 μg/ml assumed to be 1", "experimental": "as §1, §2, §3, §4"}, "[5]": {"system": "reporter cell line for IL-2 (EL-4 cells)", "test": "FCC primary screening with IL-2 reporter cells", "assay_type": "cell-based, mouse", "conditions": "relative viability×(relative fluorescence−100); PMA and ionomycin activated, compound 0.4 μg/ml, 18 h", "experimental": "as §1\n(§5) When applicable, cells and reagents handling was performed by JANUS Automated Workstation (PerkinElmer, Waltham, Mass., USA). Cells were seeded at a density of 5×10^4 per well in 96-well plates. In the primary screening reporter cells for IL-2 activated with PMA (50 ng/ml) and ionomycin (1 μM) were seeded in a 96-well plate and incubated with compounds from the chemical library in a total volume of 100 μL at 37° C. in a humidified atmosphere with 5% CO2 for 18 h. Concentration of compounds was 0.4 μg/ml. The final DMSO concentration was 0.2%, DMSO is not cytotoxic towards EL-4 reporter cells at this concentration. Control samples consisted of cells in medium with 0.2% DMSO with PMA (50 ng/ml) and ionomycin (1 μM). Following incubation cells were analyzed by flow cytometry. Viability was assessed in parallel to the level of EGFP-mediated fluorescence.\nSelection of compounds was based on FCC parameters calculated using the following formula:\nFCC parameter=relative viability×(relative fluorescence−100)\nCompounds after primary screening were considered to be hits when FCC parameter calculated after primary screening was ≦−5000. After secondary screening area under the curve (A) of FCC parameter versus relative concentration was calculated (maximum concentration used, i.e. 50 μg/ml, was assumed to be 1)."}, "[6]": {"system": "reporter cell line for interleukin-4 (EL-4 cells)", "test": "FCC test, expanded version, IL-4 reporter cell line", "assay_type": "cell-based, mouse", "conditions": "for The area under the curve showing the relationship between the FCC parameter and compound concentration, IL-4: IL-4 reporter line, PMA and ionomycin, 1.56 to 50 μg/ml, 50 μg/ml assumed to be 1", "experimental": "as §1, §2, §3, §4"}, "[7]": {"system": "reporter cell line for interleukin-2 (EL-4 cells)", "test": "FCC test, expanded version, IL-2 reporter cell line", "assay_type": "cell-based, mouse", "conditions": "for The area under the curve showing the relationship between the FCC parameter and compound concentration, IL-2: IL-2 reporter line, PMA and ionomycin, 1.56 to 50 μg/ml, 50 μg/ml assumed to be 1", "experimental": "as §1, §2, §3, §4"}, "reporter cell line EL-4": {"system": "reporter cell line EL-4", "test": "Viability of reporter cells in FCC assay", "assay_type": "cell-based, mouse", "conditions": "at concentrations up to 25 mg/ml", "experimental": "as §5\nUsing flow cytometry mean fluorescence intensity (columns, left Y axis) and cell viability (dots, the right Y-axis) was determined for all the experimental points and normalized relative to the control—cells incubated with medium with PMA and ionomycin. The data is the mean of the three experiments ±SEM. The statistical significance of differences between means were determined: * p<0.05, ** p<0.01, *** p<0.001 versus control. […]"}}}
{"smiles": "COc1cccc2c1C(=O)CC(c1ccccc1)O2", "note": "(stereo not drawn) [Compound 9, 5-methoxy-2-phenylchroman-4-one]", "values": [{"measurement": "The area under the curve showing the relationship between the FCC parameter and compound concentration, IL-10", "setting": "[1]", "value": "−1472"}, {"measurement": "inhibition at 10 µg/mL", "setting": "[2]", "value": 43, "unit": "%"}, {"measurement": "inhibition at 50 µg/mL", "setting": "[2]", "value": 92, "unit": "%"}, {"measurement": "The area under the curve showing the relationship between the FCC parameter and compound concentration, AKT", "setting": "[3]", "value": 3861}, {"measurement": "The area under the curve showing the relationship between the FCC parameter and compound concentration, IFN", "setting": "[4]", "value": "−4745"}, {"measurement": "FCC parameter (IL-2 screening)", "setting": "[5]", "value": "−5636"}, {"measurement": "The area under the curve showing the relationship between the FCC parameter and compound concentration, IL-4", "setting": "[6]", "value": 675}, {"measurement": "The area under the curve showing the relationship between the FCC parameter and compound concentration, IL-2", "setting": "[7]", "value": "−3872"}]}
{"smiles": "COc1cccc(C2CC(=O)c3ccccc3O2)c1OC", "note": "(stereo not drawn) [Compound 10, 2-(2,3-dimethoxyphenyl)chroman-4-one]", "values": [{"measurement": "The area under the curve showing the relationship between the FCC parameter and compound concentration, IL-10", "setting": "[1]", "value": "−1336"}, {"measurement": "inhibition at 10 µg/mL", "setting": "[2]", "value": 32, "unit": "%"}, {"measurement": "inhibition at 50 µg/mL", "setting": "[2]", "value": 97, "unit": "%"}, {"measurement": "The area under the curve showing the relationship between the FCC parameter and compound concentration, AKT", "setting": "[3]", "value": 118}, {"measurement": "The area under the curve showing the relationship between the FCC parameter and compound concentration, IFN", "setting": "[4]", "value": "−3142"}, {"measurement": "FCC parameter (IL-2 screening)", "setting": "[5]", "value": "−6685"}, {"measurement": "The area under the curve showing the relationship between the FCC parameter and compound concentration, IL-4", "setting": "[6]", "value": "−946"}, {"measurement": "The area under the curve showing the relationship between the FCC parameter and compound concentration, IL-2", "setting": "[7]", "value": "−2244"}]}
{"smiles": "COc1ccc2c(c1)OC(c1ccccc1)CC2=O", "note": "(stereo not drawn) [Compound 11, 7-methoxy-2-phenylchroman-4-one]", "values": [{"measurement": "The area under the curve showing the relationship between the FCC parameter and compound concentration, IL-10", "setting": "[1]", "value": "−777"}, {"measurement": "inhibition at 10 µg/mL", "setting": "[2]", "value": 35, "unit": "%"}, {"measurement": "inhibition at 50 µg/mL", "setting": "[2]", "value": 97, "unit": "%"}, {"measurement": "The area under the curve showing the relationship between the FCC parameter and compound concentration, AKT", "setting": "[3]", "value": "−754"}, {"measurement": "The area under the curve showing the relationship between the FCC parameter and compound concentration, IFN", "setting": "[4]", "value": "−3975"}, {"measurement": "FCC parameter (IL-2 screening)", "setting": "[5]", "value": "−6917"}, {"measurement": "The area under the curve showing the relationship between the FCC parameter and compound concentration, IL-4", "setting": "[6]", "value": "−1499"}, {"measurement": "The area under the curve showing the relationship between the FCC parameter and compound concentration, IL-2", "setting": "[7]", "value": "−3670"}]}
{"smiles": "CC(=O)Oc1cc2c(cc1Cl)C(C)(C)CC(C)(c1cc(Cl)c(OC(C)=O)cc1OC(C)=O)O2", "note": "(stereo not drawn) [Compound 12, 2-(2,4-diacetyloxy-5-chlorophenyl)-6-chloro-2,4,4-trimethylchroman-7-yl acetate]", "values": [{"measurement": "inhibition at 10 µg/mL", "setting": "[2]", "value": 100, "unit": "%"}, {"measurement": "inhibition at 50 µg/mL", "setting": "[2]", "value": 83, "unit": "%"}, {"measurement": "inhibition of PMA and ionomycin induced IL-2 production by ELISA (in words)", "setting": "[2]; concentration not given", "value": "strongly inhibited"}, {"measurement": "cytotoxicity in the reporter cell line EL-4", "setting": "reporter cell line EL-4", "value": "not cytotoxic"}, {"measurement": "The area under the curve showing the relationship between the FCC parameter and compound concentration, AKT", "setting": "[3]", "value": "−2936"}, {"measurement": "FCC parameter (IL-2 screening)", "setting": "[5]", "value": "−7615"}, {"measurement": "decrease in EGFP-mediated fluorescence", "setting": "[6]; reporter cell line for IL 4, 25 μg/ml", "value": "more than 90%"}, {"measurement": "inhibition of PMA and ionomycin induced EGFP-mediated fluorescence (in words)", "setting": "[7]; FCC test, reporter cell lines not specified, judged by area under the curve", "value": "highest inhibition"}, {"measurement": "decrease in EGFP-mediated fluorescence", "setting": "[7]; reporter cell line for IL-2, 25 μg/ml", "value": "more than 90%"}]}
